According to ChEMBL document CHEMBL1201862, “PubChem BioAssay data set” (2004):
Calls of active or inactive are those of the source.

What was measured:
Protein Tat = target: T1, Protein Tat (Human immunodeficiency virus type 1 group M subtype B (isolate HXB2)(HIV-1), UniProt P04608); type: functional;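 also: tat binding to TAR RNA read out by fluorescence polarization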
T1 sequence (P04608 whole entry): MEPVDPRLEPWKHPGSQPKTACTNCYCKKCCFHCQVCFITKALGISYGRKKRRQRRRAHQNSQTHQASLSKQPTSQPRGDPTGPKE

cells = type: functional, cell-based; conditions: HEK-CNG
Galanin receptor type 3 = target: T2, Galanin receptor type 3 (Homo sapiens, UniProt O60755); experiment: Fluorescence-based cell-based primary high throughput dose response assay to identify antagonists of the Galanin Receptor 3 (GalR3).; type: functional
T2 sequence (O60755 whole entry): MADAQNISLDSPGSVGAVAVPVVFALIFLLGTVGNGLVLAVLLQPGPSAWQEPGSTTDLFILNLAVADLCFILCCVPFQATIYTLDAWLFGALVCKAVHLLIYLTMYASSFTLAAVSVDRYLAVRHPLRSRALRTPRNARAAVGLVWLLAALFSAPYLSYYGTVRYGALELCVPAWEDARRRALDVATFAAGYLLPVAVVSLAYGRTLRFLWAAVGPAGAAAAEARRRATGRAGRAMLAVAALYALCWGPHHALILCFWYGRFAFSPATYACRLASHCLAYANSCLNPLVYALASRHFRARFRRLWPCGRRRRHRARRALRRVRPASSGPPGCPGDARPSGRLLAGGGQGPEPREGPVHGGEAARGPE

[1] = IGROV1 ovarian cancer cell cytotoxicity, dose response, PAX8 inhibitor project, plate reader, dry powder samples (AID 743043); type: functional, cell-based; conditions: IGROV-1
Paired box protein Pax-8 = Paired box protein Pax-8 (Homo sapiens, UniProt Q06710); experiment: inhibitors of PAX8-driven TPO luciferase reporter, dose response, RMG-I cells, cherry-pick (AID 687027); type: functional, cell-based;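 also: luciferase reporter driven by Pax8 target thyroperoxidase promoter measured by SteadyGlo luminescence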
Chain of Paired box protein Pax-8 (Q06710 whole entry): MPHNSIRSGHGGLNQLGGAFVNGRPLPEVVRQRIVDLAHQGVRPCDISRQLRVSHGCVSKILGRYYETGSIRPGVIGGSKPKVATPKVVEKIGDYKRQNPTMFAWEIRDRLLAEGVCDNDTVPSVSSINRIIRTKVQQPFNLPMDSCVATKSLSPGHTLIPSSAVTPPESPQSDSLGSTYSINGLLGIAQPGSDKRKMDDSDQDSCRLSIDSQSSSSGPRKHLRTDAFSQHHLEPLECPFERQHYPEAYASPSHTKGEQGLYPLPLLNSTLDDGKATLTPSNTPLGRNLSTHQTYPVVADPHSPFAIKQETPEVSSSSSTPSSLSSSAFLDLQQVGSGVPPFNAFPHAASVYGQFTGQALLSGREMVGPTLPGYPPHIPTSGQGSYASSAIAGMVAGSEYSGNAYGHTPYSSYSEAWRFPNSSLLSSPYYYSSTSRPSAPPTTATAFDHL

[2] = cytotoxicity in OVCAR8 ovarian cancer cells, dose response, PAX8 project, cell-based, plate reader, dry powder samples (AID 743197); type: functional; conditions: OVCAR-8
[3] = NIH:OVCAR-3 ovarian cancer cell cytotoxicity, dose response, PAX8 inhibitor project, plate reader, dry powder samples (AID 743044); type: functional, cell-based
[4] = Dose-response inhibition of insulin secretion in a rat insulinoma line at 5 mM glucose (AID 1117331); type: functional, cell-based; conditions: INS-1E
[5] = Glucagon-like peptide 1 release potency, NCI-H716 cell line, dose-response, half-maximal inhibitory concentration (AID 1117344); type: functional, cell-based
[6] = half-maximal inhibitory concentration for glucagon-like peptide-1 release, STC-1 cell line, dose-response (AID 1117345); type: functional, cell-based
[7] = A549 cell cytotoxicity, dose response, cytotoxicity control, plate reader, cherry-pick, antagonist series (AID 743412); type: functional, cell-based
[8] = LGR2 antagonists, dose response, cell-based, HEK293, CRE-luciferase reporter, cherry pick, set 2 (AID 743343); type: functional;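 also: transfected cells were stimulated with diluted bursicon conditioned medium after compound addition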
[9] = HepG2 cell cytotoxicity, dose response, cytotoxicity control, plate reader, cherry-pick, antagonist series (AID 743416); type: functional, cell-based
[10] = HEK293 cell cytotoxicity, dose response, cytotoxicity control, plate reader, cherry-picked samples (AID 743446); type: functional, cell-based
[11] = HepG2 cell cytotoxicity, dose response, cytotoxicity control for Shn3 inhibitor project, CellTiter-Glo, cherry-picked (AID 624134); type: functional, cell-based
[12] = Shn3 3'UTR reporter inhibitors, dose response, cell-based, Clone20 osteoblasts, firefly luciferase, cherry-picked (AID 624132); type: functional;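 also: firefly luciferase luminescence from reporter carrying the Shn3 3'UTR in osteoblasts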
[13] = control 3'UTR Renilla luciferase suppression, dose response, counter-screen for Shn3 inhibitor project, cell-based, Clone20-Shn3RL, cherry-picked (AID 624133); type: functional
[14] = MC4R antagonists, dose response, counter-screen for LGR2 antagonist project, cell-based, plate reader, cherry pick (AID 743444); type: functional;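 also: transfected HEK 293 cells stimulated with alpha-MSH peptide; potency of inhibitors of the alpha-MSH evoked signal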
[15] = Luminescence Cell-Based Dose Response to Identify Activators of 5'UTR Stem-Loop Driven Prion Protein mRNA Translation in H4-C Neuroglioblastoma Cells. [Related pubchem assays: 1829 (Project Summary), 1814 (Primary HTS)]; type: functional
[16] = Luminescence Cell-Based Dose Response to Identify Activators of Luciferase Translation or Activity in H4-C Neuroglioblastoma Cells. [Related pubchem assays: 1829 (Project Summary), 1814 (Primary HTS)]; type: functional
H4 = experiment: Luminescence Cell-Based Dose Response HTS to Identify Activators of 5'UTR Stem-Loop Driven Prion Protein mRNA Translation in H4 Neuroglioblastoma Cells. [Related pubchem assays: 1829 (Project Summary), 1814 (Primary HTS)]; type: functional; conditions: Homo sapiens
[17] = Luminescence Cell-Based Dose Confirmation HTS to Identify Activators of 5'UTR Stem-Loop Driven Alpha-Synuclein mRNA Translation in H4 Neuroglioblastoma Cells. [Related pubchem assays: 1829 (Project Summary), 1814 (Primary HTS)]; type: functional
[18] = Luminescence Cell-Based Dose Response HTS to Identify Activators of Luciferase Translation or Activity in H4 […] Cells. [Related pubchem assays: 1829 (Project Summary), 1814 (Primary HTS)]; type: functional
[19] = Luminescence Cell-Based Dose Confirmation to Identify Activators of 5'UTR Stem-Loop Driven Alpha-Synuclein mRNA Translation in H4 Neuroglioblastoma Cells. [Related pubchem assays: 1829 (Project Summary), 1814 (Primary HTS)]; type: functional
[20] = target: T3, Bifunctional protein GlmU (Mycobacterium tuberculosis, UniProt P9WMN3); experiment: Inhibitors of Mycobacterial Glucosamine-1-phosphate acetyl transferase (GlmU). Secondary screen.; parameters: species or system Mycobacterium tuberculosis H37Rv
T3 sequence (P9WMN3 whole entry): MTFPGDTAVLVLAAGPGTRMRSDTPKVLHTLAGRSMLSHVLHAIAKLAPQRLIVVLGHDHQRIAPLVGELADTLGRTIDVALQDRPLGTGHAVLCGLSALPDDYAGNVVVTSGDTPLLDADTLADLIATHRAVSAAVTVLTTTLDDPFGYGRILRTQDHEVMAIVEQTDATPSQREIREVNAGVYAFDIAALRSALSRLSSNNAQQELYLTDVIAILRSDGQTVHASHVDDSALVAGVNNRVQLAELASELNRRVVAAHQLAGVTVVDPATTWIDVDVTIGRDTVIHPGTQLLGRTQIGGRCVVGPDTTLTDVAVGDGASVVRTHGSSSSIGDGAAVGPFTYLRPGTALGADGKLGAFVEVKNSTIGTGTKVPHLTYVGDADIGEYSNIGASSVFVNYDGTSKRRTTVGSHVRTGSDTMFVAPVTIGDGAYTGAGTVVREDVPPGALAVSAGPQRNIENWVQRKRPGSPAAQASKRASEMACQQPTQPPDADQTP

Leucine aminopeptidase = target: T4, Leucine aminopeptidase (Plasmodium falciparum 3D7, UniProt Q8IL11); experiment: P. falciparum M17LAP inhibitors, primary screen, biochemical, fluorogenic H-Leu-NHMec substrate, 1536-well (AID 1619); type: functional
T4 sequence (Q8IL11 whole entry): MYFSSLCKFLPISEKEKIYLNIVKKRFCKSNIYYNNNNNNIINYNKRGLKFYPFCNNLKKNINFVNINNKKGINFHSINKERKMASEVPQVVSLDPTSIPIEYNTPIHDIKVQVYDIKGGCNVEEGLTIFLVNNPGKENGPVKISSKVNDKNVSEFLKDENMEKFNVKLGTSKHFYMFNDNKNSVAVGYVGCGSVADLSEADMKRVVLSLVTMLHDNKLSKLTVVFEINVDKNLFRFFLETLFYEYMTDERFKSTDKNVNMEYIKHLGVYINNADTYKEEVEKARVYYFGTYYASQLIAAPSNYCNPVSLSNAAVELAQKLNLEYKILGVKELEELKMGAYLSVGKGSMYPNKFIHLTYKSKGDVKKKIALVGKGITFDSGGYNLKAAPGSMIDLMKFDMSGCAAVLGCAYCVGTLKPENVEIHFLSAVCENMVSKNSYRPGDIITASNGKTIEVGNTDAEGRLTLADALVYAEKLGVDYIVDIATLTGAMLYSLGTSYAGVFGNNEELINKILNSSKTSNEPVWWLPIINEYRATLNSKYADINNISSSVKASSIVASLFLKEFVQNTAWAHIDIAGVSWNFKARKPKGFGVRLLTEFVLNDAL

[21] = Luminescence Cell-Based Dose Confirmation HTS to Identify Inhibitors of Platelet Dense Granule Release. [Related pubchem assays: 1663 (Primary HTS), 1678 (Summary of Project)]; type: functional
Protein skinhead-1 = target: T5, Protein skinhead-1 (Caenorhabditis elegans, UniProt P34707); type: functional
T5 sequence (P34707 whole entry): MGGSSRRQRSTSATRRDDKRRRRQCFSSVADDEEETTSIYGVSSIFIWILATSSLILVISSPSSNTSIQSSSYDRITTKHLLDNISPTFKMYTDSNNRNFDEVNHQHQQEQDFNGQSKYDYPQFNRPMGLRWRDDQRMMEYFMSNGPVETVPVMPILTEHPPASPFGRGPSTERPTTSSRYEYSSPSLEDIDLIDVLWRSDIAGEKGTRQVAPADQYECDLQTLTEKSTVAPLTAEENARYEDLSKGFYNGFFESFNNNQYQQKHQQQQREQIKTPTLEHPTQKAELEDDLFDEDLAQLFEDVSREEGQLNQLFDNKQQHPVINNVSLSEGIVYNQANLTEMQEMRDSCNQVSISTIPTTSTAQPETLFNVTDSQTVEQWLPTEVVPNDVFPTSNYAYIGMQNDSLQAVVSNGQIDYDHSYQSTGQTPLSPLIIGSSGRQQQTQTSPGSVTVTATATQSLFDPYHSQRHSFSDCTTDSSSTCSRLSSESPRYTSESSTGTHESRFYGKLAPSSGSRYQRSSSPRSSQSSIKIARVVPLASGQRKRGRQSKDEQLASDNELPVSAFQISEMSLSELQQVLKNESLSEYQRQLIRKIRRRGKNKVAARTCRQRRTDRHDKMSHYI

[22] = cytotoxicity toward DRD oncogenic fibroblasts, dose response, cell-based, non-viral oncogenic, luminescence (AID 1934); type: functional; conditions: Homo sapiens
BJ [23] = experiment: cytotoxicity toward BJ-TERT-LT-ST fibroblasts, dose response, cell-based, RAS-independent, luminescence (AID 1935); type: functional; conditions: Homo sapiens;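 also: BJ fibroblasts immortalized with TERT plus LT and ST oncogenes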
BJ [24] = experiment: cells; type: functional, cell-based; conditions: Homo sapiens
[25] = target: Luciferin 4-monooxygenase (Photinus pyralis, UniProt P08659); experiment: firefly luciferase enzyme inhibitors, dose response, biochemical, luminescence (AID 1891)
Chain of Luciferin 4-monooxygenase (P08659 whole entry): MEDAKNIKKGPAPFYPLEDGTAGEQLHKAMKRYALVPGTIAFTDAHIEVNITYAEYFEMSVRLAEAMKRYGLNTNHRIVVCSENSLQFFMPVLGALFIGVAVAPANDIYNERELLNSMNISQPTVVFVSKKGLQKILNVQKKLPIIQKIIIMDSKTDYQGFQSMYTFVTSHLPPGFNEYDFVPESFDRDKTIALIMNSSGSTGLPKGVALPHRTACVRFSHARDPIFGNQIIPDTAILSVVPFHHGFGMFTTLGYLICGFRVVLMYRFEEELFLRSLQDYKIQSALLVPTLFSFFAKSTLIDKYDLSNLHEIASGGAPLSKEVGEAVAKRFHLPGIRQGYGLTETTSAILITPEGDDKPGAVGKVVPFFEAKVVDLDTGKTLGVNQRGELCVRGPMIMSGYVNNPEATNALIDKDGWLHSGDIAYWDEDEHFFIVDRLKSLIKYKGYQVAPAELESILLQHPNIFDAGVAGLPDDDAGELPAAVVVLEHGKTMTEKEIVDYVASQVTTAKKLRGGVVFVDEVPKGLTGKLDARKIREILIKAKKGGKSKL

BJ [26] = experiment: cytotoxicity toward BJ-TERT fibroblasts, dose response, cell-based, RAS-independent, luminescence (AID 1933); type: functional; conditions: Homo sapiens
Cytochrome P450 2C9 = Cytochrome P450 2C9 (Homo sapiens, UniProt P11712)
Chain of Cytochrome P450 2C9 (P11712 whole entry): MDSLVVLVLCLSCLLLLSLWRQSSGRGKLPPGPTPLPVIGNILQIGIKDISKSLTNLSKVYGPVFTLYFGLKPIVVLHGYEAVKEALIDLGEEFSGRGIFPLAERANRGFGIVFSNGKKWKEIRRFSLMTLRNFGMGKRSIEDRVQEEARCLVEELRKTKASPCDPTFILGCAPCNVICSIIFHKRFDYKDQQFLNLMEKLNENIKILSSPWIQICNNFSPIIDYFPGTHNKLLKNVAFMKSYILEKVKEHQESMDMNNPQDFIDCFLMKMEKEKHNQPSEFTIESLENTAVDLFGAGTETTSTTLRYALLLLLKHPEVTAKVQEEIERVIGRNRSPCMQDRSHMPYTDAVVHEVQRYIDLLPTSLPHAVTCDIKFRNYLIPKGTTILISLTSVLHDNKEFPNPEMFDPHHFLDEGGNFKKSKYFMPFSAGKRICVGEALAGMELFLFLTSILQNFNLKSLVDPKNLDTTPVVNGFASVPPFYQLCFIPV

CCN1CCN(C(=O)CN(C)S(=O)(=O)c2ccc(OC)c(C)c2)CC1
IC50 (Protein Tat): > 100 µM (active)

Cc1cc(NC(=O)Cc2ccccc2)c2ccccc2n1
EC50 (cells): > 29.9 µM (inactive) | IC50 (Galanin receptor type 3): 1.3 µM (active)

C[C@@H]1CCCCO[C@@H](CN(C)Cc2ccc(C(F)(F)F)cc2)[C@@H](C)CN([C@@H](C)CO)C(=O)c2cc(NS(=O)(=O)c3ccc(Cl)cc3)ccc2O1
AC50 [1]: 53.5 µM (active) | AC50 (Paired box protein Pax-8): 7.31 µM (active) | AC50 [2]: 43.7 µM (active) | AC50 [3]: 27.4 µM (active)

Fc1cc(Br)ccc1CBr
IC50 [4]: > 33.3 µM (inactive) | IC50 [5]: > 40 µM (inactive) | IC50 [6]: > 40 µM (inactive)

CCCCNc1c(-c2cccc(-c3ccc(OC)cc3)c2)nc2cc(C)ccn12
AC50 [7]: 17.7 µM (active) | AC50 [8]: 8.28 µM (active) | AC50 [9]: 21.9 µM (active) | AC50 [10]: 14.5 µM (active) | AC50 [11]: 38.9 µM (active) | AC50 [12]: 12.1 µM (active) | AC50 [13]: 10.6 µM (active) | AC50 [14]: 10.9 µM (active)

O=C(CSc1nnnn1C1CCCC1)N1CCCCC1
EC50 [15]: 0.537 µM (active) | EC50 [16]: 0.57 µM (active) | EC50 (H4): > 120 µM (not active) | EC50 [17]: 0.118 µM (active) | EC50 [18]: < 0.1 µM (active) | EC50 [19]: 0.524 µM (active)

N#C/C(=C\c1ccc(-c2ccc(C(=O)O)cc2)o1)c1nc2ccccc2[nH]1
IC50 [20]: 51.3 µM (active)

O=C(NC1CCCCCCC1)NC1CCCCC1
EC50 [15]: 1.84 µM (active) | EC50 [16]: 1.12 µM (active) | EC50 (H4): > 120 µM (not active) | EC50 [18]: 5.81 µM (active) | EC50 [19]: > 12 µM (not active)

O=C(CN1C(=O)c2ccccc2S1(=O)=O)NCCSc1ccccc1
IC50 (Leucine aminopeptidase): 5.54 µM (active)

CCCSc1ccc2nc(-c3ccccc3)cn2c1
EC50 [21]: 2.14 µM (active) | AC50 [7]: 39.3 µM (active) | AC50 [8]: 0.951 µM (active) | AC50 [9]: 20.7 µM (active) | AC50 [10]: 39.5 µM (active) | IC50 (Protein skinhead-1): > 100 µM (inactive) | EC50 [22]: 20.9 µM (active) | EC50 (BJ [23]): > 150 µM (not active) | EC50 (BJ [24]): 19.6 µM (active) | EC50 [25]: 0.709 µM (active) | EC50 (BJ [26]): 22.8 µM (active) | AC50 [14]: 1.2 µM (active)

CC(=O)c1cnc2cc(-c3ccc(C)cc3)nn2c1C
EC50 [15]: 0.223 µM (active) | EC50 [16]: 0.319 µM (active) | EC50 [18]: < 0.1 µM (active) | EC50 [19]: 0.297 µM (active)

COc1ccc2cc(C3C(C#N)=C(N)OC(C)=C3C(C)=O)c(Cl)nc2c1 (stereo unspecified)
IC50 (Protein Tat): > 100 µM (active)

FC(F)(F)C(F)(F)C(F)(F)C(F)(F)C(F)(F)C(F)(F)C(F)(F)C(F)(F)Br [PERFLUBRON]
IC50 [4]: > 33.3 µM (inactive) | IC50 [5]: > 40 µM (inactive) | IC50 [6]: > 40 µM (inactive)

COc1ccc2c(c1)C(=O)N(CCc1ccc(S(=O)(=O)NC(=O)NC3CCCCC3)cc1)C(=O)C2(C)C [GLIQUIDONE]
AC50 (Cytochrome P450 2C9): 12.6 µM (inconclusive) | IC50 [4]: 0.23 µM (active)

Cc1ccc(S(=O)(=O)N2CC[C@@H]3[C@H](CO)N(C)c4ccc(-c5ccc(C#N)cc5)cc4[C@@H]32)cc1
AC50 [1]: 28.6 µM (active) | AC50 (Paired box protein Pax-8): 7.55 µM (active) | AC50 [2]: 48.4 µM (active)
